Patent US6458760B1, “Method for treating tissue damaged from ischemia” (Henry Ford Health System, priority 1998, dated 2002)
Non-standard residues stand in square brackets, D forms with d. Residues, ends and D or L forms follow the SMILES beside them. *: point of attachment. Phe(4-NO2) = N[CH](Cc1ccc([N+](=O)[O-])cc1)C(=O)O; Cit = NC(=O)NCCC[CH](N)C(=O)O; Cbz = O=C(OCc1ccccc1)*; CHN2 = [N-]=[N+]=C*; Bn = c1ccc(C*)cc1; tBu = CC(C)(C)*

Tests used:
Cathepsin L = Cathepsin L (Homo sapiens, UniProt P07711); test: Cathepsin L inactivation rate, fluorimetric progress curves; format: biochemical; conditions: second order inactivation rate constant corrected for substrate; substrate Z-Phe-Arg-AMC; pH 5.4, 30° C.
Method: (§1) (“Tian, et al.”) the contents of which are incorporated by reference. More specifically, the value of kobs is given by the slope of a plot of ln [P]∞−[p]t versus t (time). The apparent second-order rate contact for inactivation, k2app was calculated as kobs/[I]. The inactivation-rates (kobs) in the presence of substrate and for different inhibitor concentrations for calpain, cathepsin B and cathepsin L are determined according to the method of Tian, et al. However, k2app is corrected for the presence of substrate (s) to give the second order rate constant k^12app, calculated as k^12app=k2app (1+[s]/Km).
Cathepsins B and L were preactivated with […] DTT in 50 mM sodium acetate buffer, pH 5.4, 1 mM EDTA for 2 h at 4° C. and assayed in the same buffer with 0.01% Brij [poly(oxyethylene) glycol dodecyl ether]. 5 μM (final concentration) CBZ-Phe-Arg-AMC was used as substrate for both for cathepsins B and L. The inhibitors (0.1-1 μM) and substrate were added to the reaction mixture to incubate for 5 min in a cuvette thermostated at 30° C. Then, approximately 0.4 nM and 0.1 nM final concentration of cathepsin B and cathepsin L, respectively, were used to initiate the reaction. […] The progress curves were analyzed over at least 3 half lives to calculate the rate constants of inactivation in accordance with the procedure described by Crawford, C. Mason, R. W., Wilkström, P., and Shaw, E. in an article entitled “The design of peptidyldiazomethane inhibitors to distinguish between the cysteine proteinases calpain II, cathepsin L and cathepsin B.”, Biochem. J. 1988, 253, 751-758, the contents of which are incorporated by reference. The rates of inactivation of various substrates are tabulated hereinbelow.

Cathepsin B = Cathepsin B (Homo sapiens, UniProt P07858); test: Cathepsin B inactivation rate, fluorimetric progress curves; format: biochemical; conditions: second order inactivation rate constant corrected for substrate; pH 5.4, 30° C.
Method: as §1
Cathepsins B and L were preactivated with […] DTT in 50 mM sodium acetate buffer, pH 5.4, 1 mM EDTA for 2 h at 4° C. and assayed in the same buffer with 0.01% Brij [poly(oxyethylene) glycol dodecyl ether]. […] The inhibitors (0.1-1 μM) and substrate were added to the reaction mixture to incubate for 5 min in a cuvette thermostated at 30° C. Then, approximately 0.4 nM and 0.1 nM final concentration of cathepsin B and cathepsin L, respectively, were used to initiate the reaction. […] The progress curves were analyzed over at least 3 half lives to calculate the rate constants of inactivation in accordance with the procedure described by Crawford, C. Mason, R. W., Wilkström, P., and Shaw, E. in an article entitled “The design of peptidyldiazomethane inhibitors to distinguish between the cysteine proteinases calpain II, cathepsin L and cathepsin B.”, Biochem. J. 1988, 253, 751-758, the contents of which are incorporated by reference. The rates of inactivation of various substrates are tabulated hereinbelow.

Calpain = Calpain inactivation rate, fluorimetric progress curves; format: biochemical; conditions: second order inactivation rate constant corrected for substrate; substrate Suc-Leu-Tyr-AMC; pH 7.5, 37° C.
Method: as §1
Calpain was assayed fluorimetrically in 1 ml of 50 mM Tris/acetate buffer, pH 7.5, containing 5 mM CaCl2, 2.5 mM DTT(dithiothreitol), 0.1% Triton X-100 at 37° C., using 2.5×10^−4 M Suc-Leu-Tyr-aminomethylcoumarin (AMC) (Novabiochem, Switzerland) as substrate and 50nM (final concentration) of enzyme. The appearance of the 7-amino-4 methylcoumarin product was recorded continuously with a Perkin Elmer 650-10S spectrofluorimeter, a SPEX Fluorolog 1680, or SLM 8000C fluorescence spectrometer with excitation at 370 nm and emission at 460 nm.
Typically, 5 μL of the substrate solution (50 mM stock in DMSO) was added to 1 mL of buffer. Varying concentrations of the inhibitor solution (10 μL of a DMSO […] solution) were added, followed by 10 μL of calpain in the assay buffer. After allowing the reaction mixture to incubate for 2-5 min, during which time a steady baseline level of fluorescence was measured, calcium was added in a 10-μL volume to initiate hydrolysis of the fluorogenic substrate, and the resulting increase in fluorescence was monitored continuously. When inhibitors were tested at very low concentrations, the enzyme concentration was reduced to maintain a minimum of a 10-fold excess of inhibitor over enzyme.

[1] = test system: Wistar rats with MCA occlusion; test: Stroke model, 2 h MCA occlusion, i.v. infusion after reperfusion, infarct volume at 7 days; format: in vivo, rat; conditions: 2 h MCA occlusion; for % Hemisphere Infarct Volume (% ± SEM): day 7, control 37 ± 2.6
Method: Male Wistar rat weighing between 270-290 gm are fasted the night prior to surgery. Each rat was then anesthetized with 3.5% halothane, and spontaneously respired with 0.5% halothane in a 2:1 N2O:O2 mixture using a face mask. A normal range of blood gases and pH is maintained during ischemia and reperfusion with the face mask inhalation, as verified by samples taken from a femoral artery PE-50 catheter. Body temperature is maintained constant at 37° C. with a recirculating heating pad and K module with an intrarectal type T thermocouple. The PE-50 catheters are inserted into the femoral artery and vein following induction of anesthesia to obtain the blood gas, glucose and hemoglobin concentrations and to monitor blood pressure.
The right common carotid artery, external carotid artery and internal carotid artery are isolated using microsurgical techniques. A clamp is applied to the common carotid artery and a 4-0 nylon suture with a rounded tip is inserted into the external carotid artery through a small puncture. The clamp on the common carotid artery is removed. The suture is passed distally into the internal carotid artery until it blocks the middle cerebral artery. Two hours after the MCA occlusion, the animal is again anesthetized, and the nylon suture is removed from the internal carotid artery.
Infusion of the inhibitor or vehicle is done by intravenous infusion via the femoral vein.
Syringe pumps were filled under sterile conditions with either isotonic saline/1% DMSO solution as the control or with the concentration of CP-1 or CP-2 indicated in the examples, hereinbelow. The pumps delivered the solution at a rate of 15 μl/min for up to 4 hours.
After anesthesia had been induced in the rat, a catheter was inserted into the femoral vein and tunneled subcutaneously in the posterior neck region. Body temperature was maintained at a constant temperature of 37° C. during surgical procedures. The animals underwent 2 hours of MCA occlusion, and then reperfusion when the suture was withdrawn, and immediately thereafter, the drug was infused for four hours. The animals were killed after a 7-day reperfusion, and the brains were formalin fixed and sliced 6-μm thick into seven coronal sections A-G, and mounted on coated slides. After staining with hematoxylin and eosin, the stroke volume was measured using an image analysis program. The stroke area and the contralateral hemispheric area were calculated by tracing the areas on the computer screen, and the volumes were determined by multiplying the appropriate area by the section interval thickness. The stroke volume is expressed as the percentage of lesion size to the volume of contralateral hemisphere. Statistical analysis was performed using the independent t-test.
CP-1 dissolved in 1% DMSO and isotonic saline was given intravenously to Wistar rats (15 μl/min) at concentrations of 2 μM, 10μM, 50μM and 25μM for 4 hours immediately after reperfusion following two hours of MCA occlusion, in accordance with the procedure described hereinabove. Control animals underwent a similar protocol but they had injected therein 1% DMSO/Saline as the vehicle within four hours. All animals which survived 7 days were sacrificed and the stroke volume calculated. The results are tabulated hereinbelow:
The protocol described hereinabove was repeated with CP-2 used in lieu of CP-1, at doses of 10, 50, 250 and 500 μM.

Cathepsin L, sequence (P07711 114-333, species assumed): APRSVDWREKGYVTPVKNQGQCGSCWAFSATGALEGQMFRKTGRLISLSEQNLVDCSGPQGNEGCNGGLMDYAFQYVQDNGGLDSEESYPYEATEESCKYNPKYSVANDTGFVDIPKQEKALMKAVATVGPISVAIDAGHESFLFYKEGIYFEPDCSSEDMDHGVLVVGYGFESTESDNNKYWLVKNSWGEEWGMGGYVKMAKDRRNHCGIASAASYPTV

| Molecule | Cathepsin L k′2app (Cathepsin L) | Cathepsin B k′2app (Cathepsin B) | Calpain k′2app (Calpain) | further results |
| --- | --- | --- | --- | --- |
| CC(NC(=O)C(Cc1ccc(I)cc1)NC(=O)OCc1ccccc1)C(=O)C=[N+]=[N-] (stereo not drawn) [CBZ-Phe(I)-Ala-CHN2, benzyloxycarbonyl-Phe (I) -Ala-CHN2] | 130,000 M^−1S^−1 | 980 M^−1S^−1 | – | – |
| CC(C)CC(NC(=O)OCc1ccccc1)C(=O)NC(Cc1ccc(O)cc1)C(=O)C=[N+]=[N-] (stereo not drawn) [CBZ-Leu-Tyr-CHN2, benzyloxycarbonyl-Leu-Tyr-CHN2] (Cbz-Leu-Tyr-CHN2; configuration not given here) | 1,500,000 M^−1S^−1 | <50 M^−1S^−1 | 1,470 M^−1S^−1 | – |
| benzyloxycarbonyl-Phe-Ala-CHN2 [CBZ-Phe-Ala-CHN2] | 160,000 M^−1S^−1 | 1,200 M^−1S^−1 | <5 M^−1S^−1 | – |
| CC(C)C[C@H](NC(=O)OCc1ccccc1)C(=O)N[C@@H](CC(C)C)C(=O)N[C@@H](Cc1ccc(O)cc1)C(=O)C=[N+]=[N-] [CBZ-Leu-Leu-Tyr-CHN2, benzyloxycarbonyl -Leu-Leu-Tyr-CHN2] (Cbz-Leu-Leu-Tyr-CHN2) | 1,500,000 M^−1S^−1 | 1,300 M^−1S^−1 | 230,000 M^−1S^−1 | – |
| CSCCC(NC(=O)C(CC(C)C)NC(=O)OCc1ccccc1)C(=O)C=[N+]=[N-] (stereo not drawn) [CBZ-Leu-Met-CHN2, benzyloxycarbonyl-Leu-Met-CHN2] (Cbz-Leu-Met-CHN2; configuration not given here) | 212,000 M^−1S^−1 | 4,060 M^−1S^−1 | – | – |
| CC(C)CC(NC(=O)OCc1ccccc1)C(=O)NC(Cc1c[nH]c2ccccc12)C(=O)C=[N+]=[N-] (stereo not drawn) [CBZ-Leu-Trp-CHN2, benzyloxycarbonyl-Leu-Trp-CHN2] | 12,000 M^−1S^−1 | <50 M^−1S^−1 | – | – |

Continued, in another order:

| Cathepsin L k′2app (Cathepsin L) | Cathepsin B k′2app (Cathepsin B) | Molecule | Calpain k′2app (Calpain) | further results |
| --- | --- | --- | --- | --- |
| 390,000 M^−1S^−1 | 30,000 M^−1S^−1 | [N-]=[N+]=CC(=O)C(CSCc1ccccc1)NC(=O)C(Cc1ccccc1)NC(=O)OCc1ccccc1 (stereo not drawn) [CBZ-Phe-Cys(SBnz1)-CHN2, benzyloxycarbonyl-Phe-Cys-(SBz)-CHN2] (Cbz-Phe-Cys(Bn)-CHN2; configuration not given here) | – | – |
| 190,000 M^−1S^−1 | 50 M^−1S^−1 | [N-]=[N+]=CC(=O)C(Cc1ccc([N+](=O)[O-])cc1)NC(=O)C(Cc1ccccc1)NC(=O)OCc1ccccc1 (stereo not drawn) [CBZ-Phe-Phe(pNO2)-CHN2, benzyloxycarbonyl-Phe-Phe (p-N02) -CHN2] (Cbz-Phe-[Phe(4-NO2)]-CHN2; configuration not given here) | – | – |
| 140,000 M^−1S^−1 | 350 M^−1S^−1 | [N-]=[N+]=CC(=O)[C@H](Cc1ccccc1)NC(=O)[C@H](Cc1ccccc1)NC(=O)OCc1ccccc1 [CBZ-Phe-Phe-CHN2, benzyloxycarbonyl-Phe-Phe-CHN2] (Cbz-Phe-Phe-CHN2) | – | – |
| 60,000 M^−1S^−1 | 160 M^−1S^−1 | CC(OC(C)(C)C)C(NC(=O)C(Cc1ccccc1)NC(=O)OCc1ccccc1)C(=O)C=[N+]=[N-] (stereo not drawn) [CBZ-Phe-Thr(OtBu)-CHN2, benzyloxycarbonyl-Phe-Thr(O-t-Bu)-CHN2] | – | – |
| 200,000 M^−1S^−1 | 10 M^−1S^−1 | CC(C)(C)Oc1ccc(CC(NC(=O)C(Cc2ccccc2)NC(=O)OCc2ccccc2)C(=O)C=[N+]=[N-])cc1 (stereo not drawn) [CP-2, benzyloxycarbonyl-Phe-Tyr(OtBu)-CHN2] (Cbz-Phe-Tyr(tBu)-CHN2; configuration not given here) | <10 M^−1S^−1 | % Hemisphere Infarct Volume (% ± SEM) ([1]; 10 μM i.v. 15 μl/min for 4 h after reperfusion): 28 ± 4.6, p > 0.05%; % Hemisphere Infarct Volume (% ± SEM) ([1]; 50 μM i.v. 15 μl/min for 4 h after reperfusion): 35 ± 4.8, p > 0.05%; % Hemisphere Infarct Volume (% ± SEM) ([1]; 250 μM i.v. 15 μl/min for 4 h after reperfusion): 21 ± 4.7, p = 0.01%; % Hemisphere Infarct Volume (% ± SEM) ([1]; 500 μM i.v. 15 μl/min for 4 h after reperfusion): 22 ± 3.5, p = 0.004%; effectiveness in reducing stroke damage ([1]; doses 10, 50, 250 and 500 μM): High doses of CP-2 were effective, but not the lower doses |
| 1,800,000 M^−1S^−1 | 6,700 M^−1S^−1 | [N-]=[N+]=CC(=O)C(CCCNC(N)=O)NC(=O)C(Cc1ccccc1)NC(=O)OCc1ccccc1 (stereo not drawn) [CBZ-Phe-Cit-CHN2, benzyloxycarbonyl-Phe-Cit-CHN2] (Cbz-Phe-[Cit]-CHN2; configuration not given here) | – | – |
